{"source": "ChEMBL document CHEMBL5360670", "about": "“Novel Dihydroorotate Dehydrogenase Inhibitors for Treating Acute Myelogenous Leukemia” (ACS Med Chem Lett, 2023)", "key": {"[1]": {"test_system": "MOLM-13", "assay": "Cytotoxicity against human MOLM-13 cells assessed as reduction in cell viability incubated for 72 hrs by Celltiter-glo luminescent assay", "type": "functional, cell-based", "conditions": "MOLM-13, 72 h"}, "[2]": {"target": "Dihydroorotate dehydrogenase (quinone), mitochondrial (Homo sapiens, UniProt Q02127)", "sequence (Q02127 whole entry)": "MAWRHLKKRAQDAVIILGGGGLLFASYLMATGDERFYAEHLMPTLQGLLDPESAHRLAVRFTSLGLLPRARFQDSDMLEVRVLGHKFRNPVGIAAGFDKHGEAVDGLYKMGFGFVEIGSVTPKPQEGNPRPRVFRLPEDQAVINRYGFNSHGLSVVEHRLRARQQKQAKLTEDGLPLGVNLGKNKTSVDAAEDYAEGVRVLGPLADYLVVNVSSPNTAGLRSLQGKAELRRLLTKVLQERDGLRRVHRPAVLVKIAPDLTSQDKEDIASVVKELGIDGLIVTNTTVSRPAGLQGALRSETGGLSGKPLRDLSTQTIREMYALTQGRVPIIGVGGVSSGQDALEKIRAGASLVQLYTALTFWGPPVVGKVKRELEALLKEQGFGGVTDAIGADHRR", "assay": "Inhibition of human DHODH using dihydroorotate and CoQ6 as substrate by DCIP dye based spectrophotometry analysis"}}}
{"smiles": "Cc1ccccc1-n1cc(C(C)C)c2cc(-c3ccc(C)c(N)n3)c(F)cc2c1=O", "values": [{"measurement": "IC50", "setting": "[1]", "value": 0.02, "unit": "nM"}]}
{"smiles": "Cc1ccccc1-n1nc(C(C)C)c2cc(-c3cn(C)c(C(C)(C)O)n3)c(F)cc2c1=O", "values": [{"measurement": "IC50", "setting": "[1]", "value": 0.09, "unit": "nM"}]}
{"smiles": "Cc1ccccc1-n1cc(C(C)C)c2cc(-c3cn(C)c(C(C)(C)O)n3)c(F)cc2c1=O", "values": [{"measurement": "IC50", "setting": "[1]", "value": 0.08, "unit": "nM"}]}
{"smiles": "Cc1ccccc1-n1cc(C(C)C)c2cc(-c3cn(C)c([C@@H](C)O)n3)c(F)cc2c1=O", "values": [{"measurement": "IC50", "setting": "[1]", "value": 0.1, "unit": "nM"}]}
{"smiles": "[2H]C([2H])([2H])n1cc(-c2cc3c(C(C)C)cn(-c4ccccc4C)c(=O)c3cc2F)nc1C(C)(C)O", "values": [{"measurement": "IC50", "setting": "[2]", "value": 0.54, "unit": "nM"}, {"measurement": "IC50", "setting": "[1]", "value": 0.04, "unit": "nM"}]}
{"smiles": "Cc1ccccc1-n1cc(C(C)C)c2cc(-c3nc(C(C)(C)O)n(C)n3)c(F)cc2c1=O", "values": [{"measurement": "IC50", "setting": "[1]", "value": 0.08, "unit": "nM"}]}
